Measured values taken from patent publication US20180353460A1, “METHODS OF TREATING UROLOGICAL DISORDERS USING SARMs” (priority 2014, published 2018).

System: prostate, seminal vesicles and levator ani muscle
Assay: Androgenic and anabolic activity in intact male rats, daily oral gavage
Format: in vivo, rat
Description: Male Sprague-Dawley rats weighing approximately 200 g were purchased from Harlan Bioproducts for Science (Indianapolis, Ind.). The animals were maintained on a 12 h light/dark cycle with food (7012C LM-485 Mouse/Rat Sterilizable Diet, Harlan Teklad, Madison, Wis.) and water available ad libitum. The anabolic and androgenic activity of compound of Formula VIII in intact animals was tested, as well as a dose response evaluation in acutely orchidectomized (ORX) animals. Regenerative effects of the compound of Formula VIII in chronically (9 days) ORX rats was similarly evaluated.
The test article for this study was weighed and dissolved in 10% DMSO (Fisher) diluted with PEG 300 (Acros Organics, NJ) for preparation of the appropriate dosage concentrations. The animals were housed in groups of 2 to 3 animals per cage. Animals were randomly assigned to one of seven groups consisting of 4 to 5 animals per group. Control groups (intact and ORX) were administered vehicle daily. Compound of Formula VIII was administered via oral gavage at doses of 0.01, 0.03, 0.1, 0.3, 0.75, and 1 mg/day to both intact and ORX groups. Where appropriate, animals were castrated on day one of the study. Treatment with compound of Formula VIII began nine days post ORX and was administered daily via oral gavage for fourteen days.
The animals were sacrificed under anesthesia (ketamine/xyalzine, 87:13 mg/kg) and body weights were recorded. In addition, ventral prostate, seminal vesicles, and levator ani muscle were removed, individually weighed, normalized to body weight, and expressed as a percentage of intact control. Student's T-test was used to compare individual dose groups to the intact control group. Significance was defined a priori as a P-value <0.05. Ventral prostate and seminal vesicle weights were evaluated as a measure of androgenic activity, whereas levator ani muscle weight was evaluated as a measure of anabolic activity. Blood was collected from the abdominal aorta, centrifuged, and sera were frozen at −80° C. prior to determination of serum hormone levels. Serum luteinizing hormone (LH) and follicle stimulating hormone (FSH) concentrations were determined.
Male Sprague-Dawley rats weighing approximately 200 g were purchased from Harlan Bioproducts for Science (Indianapolis, Ind.). The animals were maintained on a 12 h light/dark cycle with food (7012C LM-485 Mouse/Rat Sterilizable Diet, Harlan Teklad, Madison, Wis.) and water available ad libitum. Anabolic and androgenic activity of compound of Formula IX in intact animals was evaluated, and the dose response in acutely orchidectomized (ORX) animals was evaluated as well. Regenerative effects of compound of Formula IX in chronically (9 days) ORX rats were also assessed.
The compound was weighed and dissolved in 10% DMSO (Fisher) diluted with PEG 300 (Acros Organics, NJ) for preparation of the appropriate dosage concentrations. The animals were housed in groups of 2 to 3 animals per cage. Intact and ORX animals were randomly assigned to one of seven groups consisting of 4 to 5 animals per group. Control groups (intact and ORX) were administered vehicle daily. Compound of Formula IX was administered via oral gavage at doses of 0.01, 0.03, 0.1, 0.3, 0.75, and 1 mg/day to both intact and ORX groups.
Castrated animals (on day one of the study) were randomly assigned to dose groups (4-5 animals/group) of 0.01, 0.03, 0.1, 0.3, 0.75, and 1 mg/day, for dose-response evaluation. Dosing began nine days post ORX and was administered daily via oral gavage for fourteen days. The animals were sacrificed under anesthesia (ketamine/xyalzine, 87:13 mg/kg) after a 14-day dosing regimen, and body weights were recorded. In addition, ventral prostate, seminal vesicles, and levator ani muscle were removed, individually weighed, normalized to body weight, and expressed as a percentage of intact control. Student's T-test was used to compare individual dose groups to the intact control group. […]

Row | SMILES | levator ani muscle weight (0.01 mg/day) | prostate weight (0.01 mg/day) | levator ani muscle weight (0.03 mg/day) | prostate weight (0.03 mg/day) | levator ani muscle weight (0.1 mg/day) | prostate weight (0.1 mg/day) | levator ani muscle weight (0.3 mg/day) | prostate weight (0.3 mg/day) | levator ani muscle weight (0.75 mg/day) | prostate weight (0.75 mg/day) | levator ani muscle weight (1 mg/day) | prostate weight (1 mg/day) | seminal vesicle weight (0.01 mg/day) | seminal vesicle weight (0.03 mg/day) | seminal vesicle weight (0.1 mg/day) | seminal vesicle weight (0.3 mg/day) | seminal vesicle weight (0.75 mg/day) | seminal vesicle weight (1 mg/day)
1 | C[C@](O)(COc1ccc(C#N)cc1)C(=O)Nc1ccc(C#N)c(Cl)c1 [VIII, (S)—N-(3-Chloro-4-cyanophenyl)-3-(4-cyanophenoxy)-2-hydroxy-2-methylpropanamide] | 107%±5% | 103%±10% | 103%±7% | 99%±10% | 97%±7% | 58%±10% | 103%±5% | 58%±15% | 118%±7% | 65%±20% | 118%±7% | 77%±23% | – | – | – | – | – | –
2 | C[C@](O)(COc1ccc(C#N)c(F)c1)C(=O)Nc1ccc(C#N)c(C(F)(F)F)c1 [XIII, (S)—N-(4-cyano-3-(trifluoromethyl)phenyl)-3-(4-cyano-3-fluorophenoxy)-2-hydroxy-2-methylpropanamide] | 116%±7% | 98%±21% | 134%±8% | 99%±8% | 134%±21% | 85%±18% | 134%±11% | 98%±22% | 142%±10% | 126%±17% | 147%±10% | 126%±17% | 115%±12% | 109%±17% | 106%±13% | 121%±11% | 157%±5% | 136%±3%
3 | C[C@](O)(COc1ccc(C#N)cc1)C(=O)Nc1ccc(C#N)c(C(F)(F)F)c1 [Compound IX, (S)—N-(4-Cyano-3-(trifluoromethyl)phenyl)-3-(4-cyanophenoxy)-2-hydroxy-2-methylpropanamide] | 120%±12% | 111%±21% | 116%±7% | 88%±15% | 128%±7% | 77%±17% | 134%±7% | 71%±16% | 125%±9% | 71%±10% | 146%±17% | 87%±13% | 94%±9% | 77%±11% | 80%±9% | 73%±12% | 77%±10% | 88%±14%
